Test results: ChEMBL document CHEMBL3885881, “DrugMatrix”

Species: Rattus norvegicus
Test: DrugMatrix - Regimen: Daily Repeat
Format: toxicity, organism-based, Sprague-Dawley
Parameters: regimen Daily Repeat, gender Male, age 6-8 weeks
Conditions: in vivo, po, route oral GAVAGE, vehicle .5 % CMC; for ABSOLUTE BASOPHIL / ABSOLUTE EOSINOPHIL / ABSOLUTE LYMPHOCYTE / ABSOLUTE MONOCYTE / ABSOLUTE SEGMENTED NEUTROPHIL / BASOPHIL / EOSINOPHIL / ERYTHROCYTE COUNT / HEMATOCRIT / HEMOGLOBIN / LEUKOCYTE COUNT / LYMPHOCYTE / MEAN CORPUSCULAR HEMOGLOBIN / MEAN CORPUSCULAR HEMOGLOBIN CONCENTRATION / MEAN CORPUSCULAR VOLUME / MONOCYTE / NEUTROPHIL / NUCLEATED RED BLOOD CELLS / PLATELET COUNT: tissue Blood; for ALANINE AMINOTRANSFERASE / ALBUMIN / ALKALINE PHOSPHATASE / ASPARTATE AMINOTRANSFERASE / BLOOD UREA NITROGEN / CARBON DIOXIDE / CHLORIDE / CHOLESTEROL / CREATINE PHOSPHOKINASE / CREATININE / GLUCOSE / LACTATE DEHYDROGENASE / LIPASE / PHOSPHORUS / POTASSIUM / SODIUM / TOTAL BILIRUBIN / TOTAL PROTEIN / URIC ACID: tissue Plasma
[1] = 29 mg/kg, 120 h, dose level Low, time 5 day
[2] = 400 mg/kg, 72 h, dose level High, time 3 day
[3] = 400 mg/kg, 120 h, dose level High, time 5 day

NC(=O)NC(=O)Cc1ccccc1 [PHENACEMIDE]
ABSOLUTE BASOPHIL [1]: 0 CELLS/uL
ABSOLUTE EOSINOPHIL [1]: 29.33 CELLS/uL
ABSOLUTE LYMPHOCYTE [1]: 6627.33 CELLS/uL
ABSOLUTE MONOCYTE [1]: 106 CELLS/uL
ABSOLUTE SEGMENTED NEUTROPHIL [1]: 904 CELLS/uL
BASOPHIL [1]: 0%
EOSINOPHIL [1]: 0.33%
ERYTHROCYTE COUNT [1]: 5.3 x10E6/uL
HEMATOCRIT [1]: 32%
HEMOGLOBIN [1]: 12.6 G/DL
LEUKOCYTE COUNT [1]: 7.67 x10E3/uL
LYMPHOCYTE [1]: 86%
MEAN CORPUSCULAR HEMOGLOBIN [1]: 23.8 pg
MEAN CORPUSCULAR HEMOGLOBIN CONCENTRATION [1]: 39.37 G/DL
MEAN CORPUSCULAR VOLUME [1]: 60.37 fL
MONOCYTE [1]: 1.33%
NEUTROPHIL [1]: 12.33%
NUCLEATED RED BLOOD CELLS [1]: 0 /100WBC
PLATELET COUNT [1]: 1108.33 x10E3/uL
ALANINE AMINOTRANSFERASE [1]: 42.67 u/L
ALBUMIN [1]: 4.13 G/DL
ALKALINE PHOSPHATASE [1]: 433.33 u/L
ASPARTATE AMINOTRANSFERASE [1]: 75.33 u/L
BLOOD UREA NITROGEN [1]: 15.33 mg/dL
CARBON DIOXIDE [1]: 25.67 mmol/L
CHLORIDE [1]: 102.33 MEQ/L
CHOLESTEROL [1]: 82.67 mg/dL
CREATINE PHOSPHOKINASE [1]: 189.67 u/L
CREATININE [1]: 0.28 mg/dL
GLUCOSE [1]: 176.33 mg/dL
LACTATE DEHYDROGENASE [1]: 163.33 u/L
LIPASE [1]: 10 u/L
PHOSPHORUS [1]: 11.93 mg/dL
POTASSIUM [1]: 5.88 MEQ/L
SODIUM [1]: 145.3 MEQ/L
TOTAL BILIRUBIN [1]: 0.1 mg/dL
TOTAL PROTEIN [1]: 6.07 G/DL
URIC ACID [1]: 1.5 mg/dL
ABSOLUTE BASOPHIL [2]: 0 CELLS/uL
ABSOLUTE EOSINOPHIL [2]: 62.33 CELLS/uL
ABSOLUTE LYMPHOCYTE [2]: 7750.67 CELLS/uL
ABSOLUTE MONOCYTE [2]: 54.67 CELLS/uL
ABSOLUTE SEGMENTED NEUTROPHIL [2]: 1099 CELLS/uL
BASOPHIL [2]: 0%
EOSINOPHIL [2]: 0.67%
ERYTHROCYTE COUNT [2]: 5.14 x10E6/uL
HEMATOCRIT [2]: 31.23%
HEMOGLOBIN [2]: 11.97 G/DL
LEUKOCYTE COUNT [2]: 8.97 x10E3/uL
LYMPHOCYTE [2]: 86.67%
MEAN CORPUSCULAR HEMOGLOBIN [2]: 23.33 pg
MEAN CORPUSCULAR HEMOGLOBIN CONCENTRATION [2]: 38.33 G/DL
MEAN CORPUSCULAR VOLUME [2]: 60.87 fL
MONOCYTE [2]: 0.67%
NEUTROPHIL [2]: 12%
NUCLEATED RED BLOOD CELLS [2]: 0.67 /100WBC
PLATELET COUNT [2]: 1052.67 x10E3/uL
ALANINE AMINOTRANSFERASE [2]: 54 u/L
ALBUMIN [2]: 4.33 G/DL
ALKALINE PHOSPHATASE [2]: 480.33 u/L
ASPARTATE AMINOTRANSFERASE [2]: 86 u/L
BLOOD UREA NITROGEN [2]: 17 mg/dL
CARBON DIOXIDE [2]: 30 mmol/L
CHLORIDE [2]: 104 MEQ/L
CHOLESTEROL [2]: 77.67 mg/dL
CREATINE PHOSPHOKINASE [2]: 137.33 u/L
CREATININE [2]: 0.47 mg/dL
GLUCOSE [2]: 160.67 mg/dL
LACTATE DEHYDROGENASE [2]: 98.33 u/L
LIPASE [2]: 11 u/L
PHOSPHORUS [2]: 13.1 mg/dL
POTASSIUM [2]: 5.91 MEQ/L
SODIUM [2]: 148.57 MEQ/L
TOTAL BILIRUBIN [2]: 0.13 mg/dL
TOTAL PROTEIN [2]: 6 G/DL
URIC ACID [2]: 1.17 mg/dL
ABSOLUTE BASOPHIL [3]: 0 CELLS/uL
ABSOLUTE EOSINOPHIL [3]: 0 CELLS/uL
ABSOLUTE LYMPHOCYTE [3]: 9516.67 CELLS/uL
ABSOLUTE MONOCYTE [3]: 47 CELLS/uL
ABSOLUTE SEGMENTED NEUTROPHIL [3]: 1103 CELLS/uL
BASOPHIL [3]: 0%
EOSINOPHIL [3]: 0%
ERYTHROCYTE COUNT [3]: 5.74 x10E6/uL
HEMATOCRIT [3]: 34.53%
HEMOGLOBIN [3]: 13.23 G/DL
LEUKOCYTE COUNT [3]: 10.67 x10E3/uL
LYMPHOCYTE [3]: 88.67%
MEAN CORPUSCULAR HEMOGLOBIN [3]: 23.07 pg
MEAN CORPUSCULAR HEMOGLOBIN CONCENTRATION [3]: 38.33 G/DL
MEAN CORPUSCULAR VOLUME [3]: 60.23 fL
MONOCYTE [3]: 0.33%
NEUTROPHIL [3]: 11%
NUCLEATED RED BLOOD CELLS [3]: 0 /100WBC
PLATELET COUNT [3]: 1161.33 x10E3/uL
ALANINE AMINOTRANSFERASE [3]: 47 u/L
ALBUMIN [3]: 4.43 G/DL
ALKALINE PHOSPHATASE [3]: 491.67 u/L
ASPARTATE AMINOTRANSFERASE [3]: 84.33 u/L
BLOOD UREA NITROGEN [3]: 22 mg/dL
CARBON DIOXIDE [3]: 24.67 mmol/L
CHLORIDE [3]: 105 MEQ/L
CHOLESTEROL [3]: 64 mg/dL
CREATINE PHOSPHOKINASE [3]: 157 u/L
CREATININE [3]: 0.73 mg/dL
GLUCOSE [3]: 176.33 mg/dL
LACTATE DEHYDROGENASE [3]: 96.33 u/L
LIPASE [3]: 8.67 u/L
PHOSPHORUS [3]: 12.63 mg/dL
POTASSIUM [3]: 6.59 MEQ/L
SODIUM [3]: 146.77 MEQ/L
TOTAL BILIRUBIN [3]: 0.1 mg/dL
TOTAL PROTEIN [3]: 5.97 G/DL
URIC ACID [3]: 1.8 mg/dL
